PubChem BioAssay AID2060890 (Molecular Pharmacology Branch, DTP, NCI, 2025)

Test system: LG0703-F948-PDC complex spheroid viability
Test: Anticancer human tumor LG0703-F948-PDC patient-derived lung adenocarcinoma cell line growth inhibition [RAS]
Conditions: for IC50: curve of first compound; for viability, T/C: stronger effect = lower value
Description: RAS pathway inhibitors in Combinations in Complex Spheroids
A high-throughput screen of multi-cell type tumor spheroids was designed to identify active combinations of RAS pathway inhibitors and targeted small molecules. Complex spheroids include a stromal component modeled by human endothelial cells (HUVEC) and fibroblasts modeled by human mesenchymal stem cells (MSCs). The concentration ranges selected for each drug and investigational agent were based upon clinically achievable concentrations if the clinical Cmax of the agent was known.
Compounds. The drugs and investigational agents: abemaciclib (NSC768073), cobimetinib (NSC768068), divarasib (GDC6063, NSC841802), docetaxel (NSC628503), GDC-1971 (RLY-1971, NSC841576), gemcitabine (NSC613327), inavolisib (NSC800729), ipatasertib (NSC767898), KB-0742 (NSC834161), MRTX-1133 (NSC836407), osimertinib (NSC779217), RMC-4630 (NSC839698), RMC-6236 (NSC851965), RMC-6291 (NSC852671), Ro-3306 (NSC812927), sapanisertib (NSC764658), SN-38 (NSC673596), staurosporine (NSC755774), SY5609 (NSC837396), and tovorafenib (DAY101, NSC766906), were obtained from the National Cancer Institute (NCI) Developmental Therapeutics Program Chemical Repository. The FDA-approved anticancer drug set is available from the NCI Developmental Therapeutics Program. […] The stock solutions were prepared in dimethyl sulfoxide (DMSO, Sigma-Aldrich, St. Louis, MO, cat. D2650) at 800-fold the tested concentration and stored at -70 degrees C prior to their use. All drugs and investigational agents were tested over a range starting from a high concentration at or near the clinical Cmax and decreasing in half-log increments. If the clinical Cmax for an agent had not been determined, the highest concentration tested was 10 microM.
Cell Culture. All cells were maintained in an incubator at 37 degrees C and 5% CO2 with 95% humidity. The PDC lines were cultured according to standard operating procedures established by the NCI PDMR. All PDCs were thawed and cultured in Matrigel-coated flasks prepared with a working solution of 1X Ham's F-12 nutrient mix, without supplementation (Invitrogen, Waltham, MA, cat. 11765054), 100 U/mL penicillin-streptomycin (Invitrogen, cat. 15140122), and 2.5% Matrigel (Corning Inc., Corning, NY, cat. 354248) for the first three passages. The 362531-283-R-J2-PDC and 782815-120-R-J1-PDC lines were cultured in 6C/Colon 1B media, which includes advanced DMEM/F-12 (Thermo Fisher Scientific, cat. 12634028), 10 mM HEPES (Thermo Fisher Scientific, cat. 15630080), 1X GlutaMAX supplement (Thermo Fisher Scientific, cat. 35050061), 0.1 mg/mL primocin (InvivoGen, San Diego, CA, cat. ant-pm-2), 10% defined fetal bovine serum, heat inactivated (HyClone Laboratories Inc., Logan, UT, cat. SH30070.03HI), 50% L-WRN conditioned media (ATCC, cat. CRL-3276), 1.25 mM N-Acetyl-L-cysteine (Sigma-Aldrich, cat. A9165), 10 mM nicotinamide (Sigma-Aldrich, cat. N0636), 1X B-27 supplement (Thermo Fisher Scientific, cat. 17504044), 1X N-2 supplement (Thermo Fisher Scientific, cat. 17502048), 50 ng/mL human EGF (Thermo Fisher Scientific, cat. PHG0311), and 10 microM Y-27632 dihydrochloride (Tocris Bioscience, cat. 1254). The K12877-001-R-J1-PDC line was cultured in 6I media, which includes all 6C/Colon 1B media plus 10 ng/mL human FGF-10 (PeproTech, cat. 100-26), 1 ng/mL human FGF-2 (PeproTech, cat. 100-18B), 1 µM prostaglandin E2 (Tocris Bioscience, cat. 2296), […] hydrocortisone (Sigma-Aldrich, cat. H4001), and […] bovine insulin (Sigma-Aldrich, cat. I6634). The K86415-001-R-J1-PDC line was cultured in 6D media, which includes all 6C/Colon 1B media components minus the L-WRN conditioned media. The 485176-168-R4-J1-PDC was cultured in PANC media, which includes all 6C/Colon 1B media plus 100 ng/mL human FGF-10 (PeproTech, cat. 100-26), 500 nM SB-431542 (Selleckchem, cat. S1067), and 10 nM gastrin (Tocris Bioscience, cat. 3006). […]
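Also: spheroids exposed to agents for 7 days.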
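For viability, T/C in this document: 100% = DMSO vehicle wells.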

CC(=O)OC12COC1CC(O)C1(C)C(=O)C(O)C3=C(C)C(OC(=O)C(O)C(NC(=O)OC(C)(C)C)c4ccccc4)CC(O)(C(OC(=O)c4ccccc4)C21)C3(C)C (configuration not stated) + CCn1c(-c2cc(N3CCN(C)CC3)cnc2C(C)OC)c2c3cc(ccc31)-c1csc(n1)CC(NC(=O)C1CC1C)C(=O)N1CCCC(N1)C(=O)OCC(C)(C)C2 was tested, and the IC50 (second compound 0.000949 µM) was < 31.6 nM, the IC50 (second compound 0.003 µM) was < 31.6 nM and the IC50 (second compound 0.00949 µM) was < 31.6 nM. For the same molecule, the IC50 (second compound 0.03 µM) was < 31.6 nM, the IC50 (second compound 0.0949 µM) was < 31.6 nM and the IC50 (second compound 0.3 µM) was < 31.6 nM. It also gave a viability, T/C (second compound 0.000949 µM, first compound 0.0316 µM) of 37.4%, a viability, T/C (second compound 0.000949 µM, first compound 0.1 µM) of 33.5% and a viability, T/C (second compound 0.000949 µM, first compound 0.316 µM) of 37.2%. For the same molecule, the viability, T/C (second compound 0.000949 µM, first compound 1 µM) was 30.1%, the viability, T/C (second compound 0.000949 µM, first compound 3.16 µM) was 25.9% and the viability, T/C (second compound 0.000949 µM, first compound 10 µM) was 19.9%. It also gave a viability, T/C (second compound 0.003 µM, first compound 0.0316 µM) of 23.8%, a viability, T/C (second compound 0.003 µM, first compound 0.1 µM) of 17% and a viability, T/C (second compound 0.003 µM, first compound 0.316 µM) of 23%. It also gave a viability, T/C (second compound 0.003 µM, first compound 1 µM) of 15.7%, a viability, T/C (second compound 0.003 µM, first compound 3.16 µM) of 12.3% and a viability, T/C (second compound 0.003 µM, first compound 10 µM) of 14.2%. It also gave a viability, T/C (second compound 0.00949 µM, first compound 0.0316 µM) of 11.2%, a viability, T/C (second compound 0.00949 µM, first compound 0.1 µM) of 13.6% and a viability, T/C (second compound 0.00949 µM, first compound 0.316 µM) of 12.8%. The viability, T/C (second compound 0.00949 µM, first compound 1 µM) was 12%, the viability, T/C (second compound 0.00949 µM, first compound 3.16 µM) was 7.75% and the viability, T/C (second compound 0.00949 µM, first compound 10 µM) was 7.15%. The viability, T/C (second compound 0.03 µM, first compound 0.0316 µM) was 6.77%, the viability, T/C (second compound 0.03 µM, first compound 0.1 µM) was 7.29% and the viability, T/C (second compound 0.03 µM, first compound 0.316 µM) was 9.54%. For the same molecule, the viability, T/C (second compound 0.03 µM, first compound 1 µM) was 7.24%, the viability, T/C (second compound 0.03 µM, first compound 3.16 µM) was 6.73% and the viability, T/C (second compound 0.03 µM, first compound 10 µM) was 4.63%. For the same molecule, the viability, T/C (second compound 0.0949 µM, first compound 0.0316 µM) was 7.39%, the viability, T/C (second compound 0.0949 µM, first compound 0.1 µM) was 5.34% and the viability, T/C (second compound 0.0949 µM, first compound 0.316 µM) was 4.2%. For the same molecule, the viability, T/C (second compound 0.0949 µM, first compound 1 µM) was 4.62%, the viability, T/C (second compound 0.0949 µM, first compound 3.16 µM) was 4% and the viability, T/C (second compound 0.0949 µM, first compound 10 µM) was 2.6%. The viability, T/C (second compound 0.3 µM, first compound 0.0316 µM) was 9.13%, the viability, T/C (second compound 0.3 µM, first compound 0.1 µM) was 5.01% and the viability, T/C (second compound 0.3 µM, first compound 0.316 µM) was 3.87%. It also gave a viability, T/C (second compound 0.3 µM, first compound 1 µM) of 4.26%, a viability, T/C (second compound 0.3 µM, first compound 3.16 µM) of 3.58% and a viability, T/C (second compound 0.3 µM, first compound 10 µM) of 2.37%.
